Test results from ChEMBL document CHEMBL3045237, “Synthesis, DNA binding, hemolytic, and anti-cancer assays of curcumin I-based ligands and their ruthenium(III) complexes” (Med Chem Res, 2013).

Experiments:
HepG2 [1] = assay: Growth inhibition of Homo sapiens (human) HepG2 cells at 0.005 mg/ml after 24 hr by MTS assay; assay type: functional; settings: HepG2, 24 h, read-out: GI
HeLa [2] = assay: Growth inhibition of Homo sapiens (human) HeLa cells at 0.0005 mg/ml after 24 hr by MTS assay; assay type: functional; settings: read-out: GI
HeLa [3] = assay: Growth inhibition of Homo sapiens (human) HeLa cells at 0.5 mg/ml after 24 hr by MTS assay; assay type: functional; settings: read-out: GI
[4] = Hemolytic activity against Homo sapiens (human) RBC at 5 ug/ml after 1 hr by spectrophotometric analysis relative to control; assay type: ADME, cell-based, Erythrocyte; settings: red blood cells (RBC), read-out: Activity
MDA-MB-231 [5] = assay: Growth inhibition of Homo sapiens (human) MDA-MB-231 cells at 0.005 mg/ml after 24 hr by MTS assay; assay type: functional; settings: MDA-MB-231, 24 h, read-out: GI
[6] = Hemolytic activity against Homo sapiens (human) RBC at 20 ug/ml after 1 hr by spectrophotometric analysis relative to control; assay type: ADME, cell-based, Erythrocyte; settings: red blood cells (RBC), read-out: Activity
[7] = Hemolytic activity against Homo sapiens (human) RBC at 50 ug/ml after 1 hr by spectrophotometric analysis relative to control; assay type: cell-based, Erythrocyte; settings: red blood cells (RBC), read-out: Activity
[8] = Hemolytic activity against Homo sapiens (human) RBC at 10 ug/ml after 1 hr by spectrophotometric analysis relative to control; assay type: ADME, cell-based, Erythrocyte; settings: red blood cells (RBC), read-out: Activity
HeLa [9] = assay: Growth inhibition of Homo sapiens (human) HeLa cells at 0.005 mg/ml after 24 hr by MTS assay; assay type: functional; settings: read-out: GI
MDA-MB-231 [10] = assay: Growth inhibition of Homo sapiens (human) MDA-MB-231 cells at 0.05 mg/ml after 24 hr by MTS assay; assay type: functional; settings: MDA-MB-231, 24 h, read-out: GI
HepG2 [11] = assay: Growth inhibition of Homo sapiens (human) HepG2 cells at 0.5 mg/ml after 24 hr by MTS assay; assay type: functional; settings: HepG2, 24 h, read-out: GI
[12] = Hemolytic activity against Homo sapiens (human) RBC at 100 ug/ml after 1 hr by spectrophotometric analysis relative to control; assay type: ADME, cell-based, Erythrocyte; settings: red blood cells (RBC), read-out: Activity
HeLa [13] = assay: Cytotoxicity against Homo sapiens (human) HeLa cells after 24 hr by MTS assay; assay type: functional, cell-based
HeLa [14] = assay: Growth inhibition of Homo sapiens (human) HeLa cells at 0.05 mg/ml after 24 hr by MTS assay; assay type: functional; settings: read-out: GI
MDA-MB-231 [15] = assay: Growth inhibition of Homo sapiens (human) MDA-MB-231 cells at 0.0005 mg/ml after 24 hr by MTS assay; assay type: functional; settings: MDA-MB-231, 24 h, read-out: GI
MDA-MB-231 [16] = assay: Growth inhibition of Homo sapiens (human) MDA-MB-231 cells at 0.5 mg/ml after 24 hr by MTS assay; assay type: functional; settings: MDA-MB-231, 24 h, read-out: GI
HT-29 = assay: Growth inhibition of Homo sapiens (human) HT-29 cells at 0.5 mg/ml after 24 hr by MTS assay; assay type: functional; settings: HT-29, 24 h, read-out: GI

| SMILES | inhibition of growth at 5 µg/mL (HepG2 [1]) [%] | inhibition of growth at 0.5 µg/mL (HeLa [2]) [%] | inhibition of growth at 500 µg/mL (HeLa [3]) [%] | hemolysis at 1 h, 5 ug/ml [4] [%] | inhibition of growth at 5 µg/mL (MDA-MB-231 [5]) [%] | hemolysis at 1 h, 20 ug/ml [6] [%] | hemolysis at 1 h, 50 ug/ml [7] [%] | hemolysis at 1 h, 10 ug/ml [8] [%] | inhibition of growth at 5 µg/mL (HeLa [9]) [%] | inhibition of growth at 50 µg/mL (MDA-MB-231 [10]) [%] | inhibition of growth at 500 µg/mL (HepG2 [11]) [%] | hemolysis at 1 h, 100 ug/ml [12] [%] | IC50 (HeLa [13]) [nM] | inhibition of growth at 50 µg/mL (HeLa [14]) [%] | inhibition of growth at 0.5 µg/mL (MDA-MB-231 [15]) [%] | inhibition of growth at 500 µg/mL (MDA-MB-231 [16]) [%] | inhibition of growth at 500 µg/mL (HT-29) [%] |
| --- | --- | --- | --- | --- | --- | --- | --- | --- | --- | --- | --- | --- | --- | --- | --- | --- | --- |
| COc1cc(/C=C/C(=N\NC(N)=O)C(=Cc2ccc(O)cc2)C(/C=C/c2ccc(O)c(OC)c2)=N/NC(N)=O)ccc1O | 0.51 | 30.8 | 13.8 | 8 | 12.9 | 12 | 18 | 10 | 33.5 | 7.64 | 0.74 | 21 | 20.4 | 35 | 21.7 | – | – |
| COc1cc(/C=C/C(=N\NC(N)=O)C(=Cc2cc(OC)c(O)c(OC)c2)C(/C=C/c2ccc(O)c(OC)c2)=N/NC(N)=O)ccc1O | – | 40.1 | 53.1 | 2 | – | 3.9 | 9 | 4 | 15.8 | – | 48.1 | 15 | – | 28.1 | 8.79 | 33.6 | 46.5 |
| N#Cc1ccc(C(c2ccc(C#N)cc2)n2cncn2)cc1 [LETROZOLE] | – | – | – | 22 | – | 60 | 80 | 32 | – | – | – | 98 | – | – | – | – | – |
